Measurements: US3950418A, “Vitamin A acid amides” (Hoffmann-La Roche Inc., priority 1970, dated 1976)

How the values were obtained:
Format in all cases: in vivo
[1] = Acute toxicity, testing in the mouse; conditions: in vivo, in rape oil; for LD50 at 240 h: 10 days
Excerpt: (§1) Toxicity tests carried out in mice and rats gave the following results for acute toxicity:
(§2) 1. Vitamin A acid ethyl amide in rape oil (per os and intraperitoneal administration)
(§3) 2. Vitamin A acid ethanol amide in rape oil (intraperitoneal administration)
(§4) 3. Vitamin A acid diethyl amide, vitamin A acid n-butyl amide, vitamin A acid phenyl amide, vitamin A acid isopropyl amide, or vitamin A acid methyl amide in rape oil (intraperitoneal administration)

mouse = assay: Acute toxicity, testing in the mouse; conditions: in rape oil
Excerpt: as §1, §2, §3, §4

[2] = Acute toxicity, testing in the rat; conditions: in vivo, in rape oil, per os and intraperitoneal administration
Excerpt: as §1
(§5) Vitamin A acid ethyl amide in rape oil (per os and intraperitoneal administration)

rat = assay: Acute toxicity, testing in the rat; conditions: in rape oil, per os and intraperitoneal administration
Excerpt: as §1, §5

[3] = ip, intraperitoneal administration
[4] = intraperitoneal administration, 24 hrs.
[5] = intraperitoneal administration, 10 days
[6] = per os and intraperitoneal administration
[7] = per os and intraperitoneal administration, 20 days
[8] = per os and intraperitoneal administration, 24 hrs.
[9] = per os and intraperitoneal administration, 10 days

Compound	LD50 at 24 h [1, 3] [mg/kg]	LD50 at 240 h [1, 3] [mg/kg]	LD10 (mouse; [4]) [mg/kg]	LD90 (mouse; [4]) [mg/kg]	LD10 (mouse; [5]) [mg/kg]	LD90 (mouse; [5]) [mg/kg]	other results
CCN(CC)C(=O)/C=C(C)/C=C/C=C(C)/C=C/C1=C(C)CCCC1(C)C [Vitamin A acid diethyl amide, vitamin A acid diethyl amide]	> 4000	> 4000	> 4000	> 4000	> 4000	> 4000	–
CC1=C(/C=C/C(C)=C/C=C/C(C)=C/C(=O)NCCO)C(C)(C)CCC1 [Vitamin A acid ethanol amide, vitamin A acid ethanol amide]	> 4000	1000	> 4000	> 4000	710	1400	–
CCNC(=O)/C=C(C)/C=C/C=C(C)/C=C/C1=C(C)CCCC1(C)C [Vitamin A acid ethyl amide, vitamin A acid monoethyl amide]	–	–	–	–	–	–	LD50 at 24 h ([2]; 24 hrs.): > 4000 mg/kg; LD50 at 240 h ([2]; 10 days): > 4000 mg/kg; LD10 (rat; 24 hrs.): > 4000 mg/kg; LD90 (rat; 24 hrs.): > 4000 mg/kg; LD10 (rat; 10 days): > 4000 mg/kg; LD90 (rat; 10 days): > 4000 mg/kg; LD50 at 24 h [1, 6]: > 4000 mg/kg; LD50 at 240 h [1, 6]: > 4000 mg/kg; LD50 at 480 h [1, 7]: > 4000 mg/kg; LD10 (mouse; [8]): > 4000 mg/kg; LD90 (mouse; [8]): > 4000 mg/kg; LD10 (mouse; [9]): > 4000 mg/kg; LD90 (mouse; [9]): > 4000 mg/kg; LD10 (mouse; [7]): > 4000 mg/kg; LD90 (mouse; [7]): > 4000 mg/kg
CC1=C(/C=C/C(C)=C/C=C/C(C)=C/C(=O)NC(C)C)C(C)(C)CCC1 [vitamin A acid isopropyl amide]	> 4000	> 4000	> 4000	> 4000	> 4000	> 4000	–
CNC(=O)/C=C(C)/C=C/C=C(C)/C=C/C1=C(C)CCCC1(C)C [vitamin A acid methyl amide]	> 4000	> 4000	> 4000	> 4000	> 4000	> 4000	–
CCCCNC(=O)/C=C(C)/C=C/C=C(C)/C=C/C1=C(C)CCCC1(C)C [vitamin A acid n-butyl amide]	> 4000	> 4000	> 4000	> 4000	> 4000	> 4000	–
CC1=C(/C=C/C(C)=C/C=C/C(C)=C/C(=O)Nc2ccccc2)C(C)(C)CCC1 [vitamin A acid phenyl amide]	> 4000	> 4000	> 4000	> 4000	> 4000	> 4000	–
